# Results from patent US20100260684A1, “USE OF 3-ALKANOYLOXYMETHOXYCARBONYL NITROXIDE ESTERS AS OXIMETRY PROBES FOR MEASUREMENT OF OXYGEN STATUS IN TISSUES” (priority 2007, published 2010).
# Read-outs that look alike come from different tables or passages of the source.
# How the values were obtained:
# Jurkat lymphocytes = type: cell-based
# Experimental: Cellular Loading of Nitroxides. Jurkat lymphocytes were cultured and loaded with nitroxides as previously described (5,6). […] After incubation, cells were washed 3 times in Hanks' Balanced Salt Solution (HBSS), and resuspended in […] HBSS. To lyse cells, […] digitonin was added to each cell suspension, which was then sonicated for […] in a bath sonicator (model G1 12SPIG, Laboratory Supplies Company, Inc., Hicksville, N.Y.). The lysate was assayed for nitroxide content by EPR spectroscopy. […] EPR Spectroscopy. EPR spectra were recorded on an X-band spectrometer (model E-109, Varian Inc., Palo Alto, Calif.) at the following settings: microwave power, 20 mW; microwave frequency, 9.55 GHz; field set, 3335 G; modulation frequency, 1 kHz; modulation amplitude, 0.5 G; field sweep, 80 G at 26.7 G min^-1 Where the amplitude of only the center spectral line was required, the sweep width was 8 […] software (Scientific Software Solutions, Northville, Mich.) was used for spectrometer control and data acquisition. Nitroxide signal was measured as the peak-to-trough amplitude of the center line of the three-line spectrum.
# [1] = In vivo EPR: nitroxide entrapped in brain after iv injection and saline wash of head vasculature; settings: mice, vasculature washed with normal saline
# [2] = Determination of logP of labile esters from HPLC capacity factors; settings: pH 6
# [3] = pH 6
# [4] = mouse, in vivo, iv
# [5] = literature values used for logP vs. logk' calibration line; cited from earlier work
molecule,measurement,setting,value
"3-heptanoylmethoxycarbonyl-2,2,5,5-tetramethyl-1-pyrrolidinyloxyl [Ester 7]",intracellular loading of nitroxide [1],Jurkat lymphocytes,no additional improvement in loading
"CC(=O)OCOC(=O)C1CC(C)(C)N([O])C1(C)C (centres unmarked) [Ester 2, 3-Acetoxymethoxycarbonyl-2,2,5,5-tetramethyl-1-pyrrolidinyloxyl]",percentage of original dose crossed the blood brain barrier and entrapped in the brain as nitroxide [1],[1]; 10-min point,about 42%
same,percentage of original dose crossed the blood brain barrier and entrapped in the brain as nitroxide [1],[1]; 20-min point,about 42%
"CCC(=O)OCOC(=O)C1CC(C)(C)N([O])C1(C)C (centres unmarked) [Ester 3, 3-propanoylmethyloxycarbonyl-2,2,5,5-tetramethyl-1-pyrrolidinyloxyl]",intracellular loading of nitroxide [1],Jurkat lymphocytes,negligible effect on intracellular loading
CCC(=O)OCOC(=O)C1CC(C)(C)N(O)C1(C)C (centres unmarked) [Ester 3],chromatographic logP,[2],1.33
"CCCCC(=O)OCOC(=O)C1CC(C)(C)N([O])C1(C)C (centres unmarked) [Ester 4, 3-pentanoylmethoxycarbonyl-2,2,5,5-tetramethyl-1-pyrrolidinyloxyl]",logP,[3],2.67
same,percentage of original dose crossed the blood brain barrier and entrapped in the brain as nitroxide [1],[4],about 65%
CCCCC(=O)OCOC(=O)C1CC(C)(C)N(O)C1(C)C (centres unmarked) [Ester 4],chromatographic logP,[2],2.67
CC(C)(C)C(=O)OCOC(=O)C1CC(C)(C)N([O])C1(C)C (centres unmarked) [Ester 6],logP,[3],2.60
CCCCCCC(=O)OCOC(=O)C1CC(C)(C)N(O)C1(C)C (centres unmarked) [Ester 7],chromatographic logP,[2],3.54
C[C@]12CCC(=O)C=C1CC[C@@H]1[C@@H]2[C@@H](O)C[C@@]2(C)[C@H]1CC[C@]2(O)C(=O)CO [hydrocortisone],known logP,[5],1.53
